Laboratory results from article PMC10861852, “Loss of activation by GABA in vertebrate delta ionotropic glutamate receptors” (Proceedings of the National Academy of Sciences of the …, 2024).

Legend:
RatGluD2^5x = molecular target: T1, RatGluD2^5x (Rattus norvegicus, UniProt Q63226, A686S/K694R/N720P/P806D/Y613F); assay: Two-electrode voltage clamp, responses to ligands in mutant-expressing oocytes; format: cell-based; conditions: ligands 30 mM
T1 construct: expressed in transfected cells; host or cells: Xenopus laevis oocytes injected with mRNA
T1 sequence (Q63226 24-1007 Y613F/A686S/K694R/N720P/P806D): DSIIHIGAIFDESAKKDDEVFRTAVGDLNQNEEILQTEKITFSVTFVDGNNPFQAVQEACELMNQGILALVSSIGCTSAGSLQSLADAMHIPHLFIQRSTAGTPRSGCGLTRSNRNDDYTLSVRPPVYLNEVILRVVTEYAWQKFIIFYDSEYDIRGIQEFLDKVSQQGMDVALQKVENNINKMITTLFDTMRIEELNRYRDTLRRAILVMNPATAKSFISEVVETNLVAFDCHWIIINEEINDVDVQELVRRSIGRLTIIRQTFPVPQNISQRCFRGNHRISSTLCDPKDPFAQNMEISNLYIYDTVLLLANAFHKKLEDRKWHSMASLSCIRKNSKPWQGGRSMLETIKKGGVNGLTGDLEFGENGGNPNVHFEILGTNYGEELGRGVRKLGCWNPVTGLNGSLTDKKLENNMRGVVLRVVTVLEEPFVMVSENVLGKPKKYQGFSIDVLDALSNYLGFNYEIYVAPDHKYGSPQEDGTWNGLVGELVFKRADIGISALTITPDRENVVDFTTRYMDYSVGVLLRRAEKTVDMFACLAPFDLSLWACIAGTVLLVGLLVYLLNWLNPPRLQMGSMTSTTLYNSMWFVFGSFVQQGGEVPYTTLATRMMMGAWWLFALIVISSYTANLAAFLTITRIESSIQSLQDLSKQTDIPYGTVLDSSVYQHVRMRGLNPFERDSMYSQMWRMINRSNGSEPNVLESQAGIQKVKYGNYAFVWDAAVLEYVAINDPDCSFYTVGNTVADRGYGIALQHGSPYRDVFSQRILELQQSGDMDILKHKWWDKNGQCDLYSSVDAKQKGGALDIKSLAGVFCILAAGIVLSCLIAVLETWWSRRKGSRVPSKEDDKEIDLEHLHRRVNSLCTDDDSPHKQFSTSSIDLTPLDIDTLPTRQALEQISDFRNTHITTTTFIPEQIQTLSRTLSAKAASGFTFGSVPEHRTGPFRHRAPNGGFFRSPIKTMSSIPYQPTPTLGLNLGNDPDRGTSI

RatGluD2^Lc^-10x = molecular target: T2, RatGluD2^Lc^-10x (Rattus norvegicus, UniProt Q63226, A654T/A686S/D753Q/K694R/N720P/N763K/P806D/Q786M/R787V/S544G/Y613F); assay: as above; format: cell-based; conditions: ligands 30 mM
T2 construct: expressed in transfected cells; host or cells: Xenopus laevis oocytes injected with mRNA

AcaGluD^Rat^NTD = assay: Two-electrode voltage clamp, ligand-gated currents in chimera-expressing oocytes; conditions: relative ligand-gated current amplitude, n = 3
Source text: (§1) To answer this, we measured ligand-gated currents in two chimeric AcaGluD constructs in which the NTD was replaced with that of RatGluD2: one retaining the NTD-LBD linker of AcaGluD, “AcaGluD^Rat^NTD”; and the other with the NTD-LBD linker of RatGluD2, “AcaGluD^Rat^NTDlink” (Fig. 4 A and B and SI Appendix, Supporting text).

AcaGluD^Rat^NTDlink = assay: as above; conditions: relative ligand-gated current amplitude, n = 3
Source text: as §1

RatGluD2^Lc^-9x = molecular target: T3, RatGluD2^Lc^-9x (Rattus norvegicus, UniProt Q63226, A654T/A686S/D753Q/K694R/N720P/N763K/P806D/Q786M/R787V/Y613F); assay: Two-electrode voltage clamp, responses to ligands in mutant-expressing oocytes; format: cell-based; conditions: ligands 30 mM; receptor inactive at rest
T3 construct: expressed in transfected cells; host or cells: Xenopus laevis oocytes injected with mRNA

V806R mutant AcaGluD = assay: Two-electrode voltage clamp, ligand-gated currents in mutant-expressing oocytes
Source text: (§2) As the long CTD is implicated little in channel gating and more in expression and trafficking of iGluRs ([3]), we excluded it from this analysis. […] (Two of the mutants incorporated substitutions of two adjacent residues for efficiency.)

Q772D mutant AcaGluD = assay: as above
Source text: as §2

M805Q mutant AcaGluD = assay: as above
Source text: as §2

DioGluD = assay: Two-electrode voltage clamp, ligand-gated currents in oocytes; format: cell-based, Diopisthoporus longitubus; conditions: wild-type
RatGluD1^AC = molecular target: T4, RatGluD1^AC (Rattus norvegicus, UniProt Q62640, A654C); assay: Two-electrode voltage clamp, inhibition of constitutive current in oocytes; format: cell-based; conditions: A654C mutant receptor, n = 10
T4 construct: expressed in transfected cells; host or cells: Xenopus laevis oocytes injected with mRNA

K782N mutant AcaGluD = assay: Two-electrode voltage clamp, ligand-gated currents in mutant-expressing oocytes
Source text: as §2

T2 sequence (Q63226 24-1007 S544G/Y613F/A654T/A686S/K694R/N720P/D753Q/N763K/Q786M/R787V/P806D): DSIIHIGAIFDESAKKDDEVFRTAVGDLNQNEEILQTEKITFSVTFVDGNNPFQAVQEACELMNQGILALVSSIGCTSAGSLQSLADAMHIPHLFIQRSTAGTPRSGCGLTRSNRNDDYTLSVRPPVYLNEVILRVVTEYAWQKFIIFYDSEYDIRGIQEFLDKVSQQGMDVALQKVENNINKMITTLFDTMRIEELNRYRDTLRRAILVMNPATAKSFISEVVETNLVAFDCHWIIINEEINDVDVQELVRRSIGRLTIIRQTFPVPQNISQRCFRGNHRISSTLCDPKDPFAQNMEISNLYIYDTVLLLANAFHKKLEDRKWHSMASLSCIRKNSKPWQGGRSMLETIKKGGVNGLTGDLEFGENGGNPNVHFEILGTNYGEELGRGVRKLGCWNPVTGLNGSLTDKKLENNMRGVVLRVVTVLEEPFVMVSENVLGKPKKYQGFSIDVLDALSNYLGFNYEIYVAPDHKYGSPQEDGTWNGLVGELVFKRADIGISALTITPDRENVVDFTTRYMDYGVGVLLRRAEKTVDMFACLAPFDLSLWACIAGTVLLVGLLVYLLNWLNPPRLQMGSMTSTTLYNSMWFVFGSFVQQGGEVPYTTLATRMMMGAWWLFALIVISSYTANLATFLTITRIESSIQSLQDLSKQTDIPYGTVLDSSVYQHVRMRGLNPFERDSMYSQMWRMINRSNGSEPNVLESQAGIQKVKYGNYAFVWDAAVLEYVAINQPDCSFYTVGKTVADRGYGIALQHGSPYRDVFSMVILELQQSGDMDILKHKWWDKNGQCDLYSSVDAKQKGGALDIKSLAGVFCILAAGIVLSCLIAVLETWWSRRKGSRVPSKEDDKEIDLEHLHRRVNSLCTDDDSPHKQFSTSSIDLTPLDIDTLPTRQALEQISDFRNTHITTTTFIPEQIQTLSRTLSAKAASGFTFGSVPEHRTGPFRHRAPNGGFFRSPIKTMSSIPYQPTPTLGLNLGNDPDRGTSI
T3 sequence (Q63226 24-1007 Y613F/A654T/A686S/K694R/N720P/D753Q/N763K/Q786M/R787V/P806D): as the sequence (Q63226 24-1007 S544G/Y613F/A654T/A686S/K694R/N720P/D753Q/N763K/Q786M/R787V/P806D) above, with G521S counted along it
T4 sequence (Q62640 21-1009 A654C): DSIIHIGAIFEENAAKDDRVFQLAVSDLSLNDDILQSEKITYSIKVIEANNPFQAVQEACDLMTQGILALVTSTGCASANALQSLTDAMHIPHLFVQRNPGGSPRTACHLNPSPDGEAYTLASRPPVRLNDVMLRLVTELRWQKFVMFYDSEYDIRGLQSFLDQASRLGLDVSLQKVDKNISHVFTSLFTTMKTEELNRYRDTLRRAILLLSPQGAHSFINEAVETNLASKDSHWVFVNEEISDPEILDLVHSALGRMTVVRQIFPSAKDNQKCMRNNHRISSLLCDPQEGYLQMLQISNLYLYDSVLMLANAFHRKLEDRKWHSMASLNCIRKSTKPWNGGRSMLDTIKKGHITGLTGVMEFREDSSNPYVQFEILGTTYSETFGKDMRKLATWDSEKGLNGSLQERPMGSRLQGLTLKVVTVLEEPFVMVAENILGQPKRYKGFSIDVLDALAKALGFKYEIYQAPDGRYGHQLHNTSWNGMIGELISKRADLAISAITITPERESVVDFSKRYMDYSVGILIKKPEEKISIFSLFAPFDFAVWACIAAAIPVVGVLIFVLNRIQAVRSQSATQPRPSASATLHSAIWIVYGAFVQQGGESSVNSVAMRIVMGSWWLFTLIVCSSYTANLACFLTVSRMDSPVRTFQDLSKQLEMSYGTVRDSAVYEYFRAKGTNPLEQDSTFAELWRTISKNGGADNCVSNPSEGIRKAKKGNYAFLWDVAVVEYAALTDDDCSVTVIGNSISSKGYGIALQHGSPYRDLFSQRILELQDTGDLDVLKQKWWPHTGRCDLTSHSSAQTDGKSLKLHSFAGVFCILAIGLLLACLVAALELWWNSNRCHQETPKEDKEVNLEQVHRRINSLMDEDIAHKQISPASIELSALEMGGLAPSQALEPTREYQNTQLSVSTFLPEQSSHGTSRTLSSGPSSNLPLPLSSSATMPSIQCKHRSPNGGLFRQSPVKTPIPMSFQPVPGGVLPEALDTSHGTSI

SMILES | current response to ligand (RatGluD2^5x) | current response to ligand (RatGluD2^Lc^-10x) | relative efficacy (AcaGluD^Rat^NTD) | relative efficacy (AcaGluD^Rat^NTDlink) | current response to ligand (RatGluD2^Lc^-9x) | maximum GABA-gated current amplitude (V806R mutant AcaGluD) | maximum GABA-gated current amplitude (Q772D mutant AcaGluD) | maximum GABA-gated current amplitude (M805Q mutant AcaGluD) | ligand-elicited currents (DioGluD) | inactivation of constitutive current relative to D-serine (RatGluD1^AC) | maximum GABA-gated current amplitude (K782N mutant AcaGluD)
N[C@H](CO)C(=O)O [D-serine] | no responses | showed inward currents | 5 ± 1% | 20 ± 3% |  |  |  |  |  |  | 
NCC(=O)O [glycine] | no responses | showed inward currents |  |  | conducted inward currents |  |  |  |  |  | 
NCCCC(=O)O [GABA, γ-aminobutyric acid] | no responses |  |  |  |  | less than 1 μA | less than 1 μA | less than 1 μA | the only ligand that elicited currents | 86 ± 5% | less than 1 μA
